Common to all, as to experiment: Post-emergence efficacy, glasshouse spray test
Holding throughout (assay type): in vivo

One assay concerns Setaria faberi (SETFA). Conditions: Setaria faberi, post-emergence, 312 h, evaluated after 13 days, read-out: Control of weed species SETFA after post-emergence application (100=total damage to plant; 0=no damage to plant); for pest or weed control at 1000 g/ha: application rate 1000 g/Ha. The gist of the method: (§1)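 Efficacy was rated 13 days post-treatment on a 0–100 damage scale. Treatment was a post-emergence spray on plants raised 14 days in soil at 24/16 °C, 14 h photoperiod and 65% humidity.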

A further assay relates to Lolium perenne (LOLPE). Conditions: Lolium perenne, post-emergence, 312 h, evaluated after 13 days, read-out: Control of weed species LOLPE after post-emergence application (100=total damage to plant; 0=no damage to plant); for pest or weed control at 1000 g/ha: application rate 1000 g/Ha. The gist of the method: as §1
In assay [1] the test system is Digitaria sanguinalis (DIGSA). Conditions: Digitaria sanguinalis, post-emergence, 312 h, evaluated after 13 days, read-out: Control of weed species DIGSA after post-emergence application (100=total damage to plant; 0=no damage to plant); for pest or weed control at 1000 g/ha: application rate 1000 g/Ha. The gist of the method:
as §1

The test system of assay [2] is Ipomoea hederacea (IPOHE). Conditions: Ipomoea hederacea, post-emergence, 312 h, evaluated after 13 days, read-out: Control of weed species IPOHE after post-emergence application (100=total damage to plant; 0=no damage to plant); for pest or weed control at 1000 g/ha: application rate 1000 g/Ha. The gist of the method:
as §1

Another assay concerns Eleusine indica (ELEIN). The note with it: Eleusine indica, post-emergence, 312 h, evaluated after 13 days, read-out: Control of weed species ELEIN after post-emergence application (100=total damage to plant; 0=no damage to plant); for pest or weed control at 1000 g/ha: application rate 1000 g/Ha. The gist of the method:
as §1

Assay [3] relates to Amaranthus palmeri (AMAPA). Conditions: Amaranthus palmeri, post-emergence, 312 h, evaluated after 13 days, read-out: Control of weed species AMAPA after post-emergence application (100=total damage to plant; 0=no damage to plant); for pest or weed control at 1000 g/ha: application rate 1000 g/Ha. The gist of the method:
as §1

Assay [4] concerns Euphorbia heterophylla (EPHHL). The note with it: Euphorbia heterophylla, post-emergence, 312 h, evaluated after 13 days, read-out: Control of weed species EPHHL after post-emergence application (100=total damage to plant; 0=no damage to plant); for pest or weed control at 1000 g/ha: application rate 1000 g/Ha. The gist of the method: as §1
For assay [5], the system named is Echinochloa crus-galli (ECHCG). The note with it: Echinochloa crus-galli, post-emergence, 312 h, evaluated after 13 days, read-out: Control of weed species ECHCG after post-emergence application (100=total damage to plant; 0=no damage to plant); for pest or weed control at 1000 g/ha: application rate 1000 g/Ha. The gist of the method: as §1
For assay [6], the system named is Chenopodium album (CHEAL). Conditions: Chenopodium album, post-emergence, 312 h, evaluated after 13 days, read-out: Control of weed species CHEAL after post-emergence application (100=total damage to plant; 0=no damage to plant); for pest or weed control at 1000 g/ha: application rate 1000 g/Ha. The gist of the method: as §1

Molecules are shown by their SMILES.

For the molecule `COc1ccc2cc[n+](CCS(=O)(=O)[O-])nc2c1` [Compound A85], the pest or weed control at 1000 g/ha in the assay with Setaria faberi (SETFA) is 30%; in the assay with Lolium perenne (LOLPE) it was 20%; in assay [1] it was 20%; in assay [2] it was 70%; with Eleusine indica (ELEIN) it was 40%; in [3] it was 100%. The pest or weed control at 1000 g/ha in [4] turned out to be 80%; in assay [5], 20%; in assay [6], 100%.
`OCCC[n+]1ccc2ccccc2n1` [Compound A121]: the pest or weed control at 1000 g/ha was 30% in the assay on Setaria faberi (SETFA); 10% in the assay on Lolium perenne (LOLPE); 0% in assay [1]; 20% in assay [2]; 0% with Eleusine indica (ELEIN); 30% in assay [3]. In addition, the results for the pest or weed control at 1000 g/ha in [4], in assay [5] and in assay [6] were 30%, 10% and 60%, respectively.
For `COC(=O)C[n+]1ccc2cccc(C)c2n1` [Compound A58], the pest or weed control at 1000 g/ha in the assay with Setaria faberi (SETFA) amounted to 0%; with Lolium perenne (LOLPE), 0%; in [1] it was 0%; in assay [2] it was 10%; in the assay with Eleusine indica (ELEIN), 10%; in [3], 0%. For the same molecule, the pest or weed control at 1000 g/ha came to 20% in [4], 10% in [5] and 30% in assay [6].
On to `CONC(=O)C[n+]1cc(C)c2cc(C)cc(C)c2n1` [Compound A5], for which the pest or weed control at 1000 g/ha with Setaria faberi (SETFA) was 10%; in the assay on Lolium perenne (LOLPE), 0%; in assay [1], 10%; in [2] it was 20%; in the assay on Eleusine indica (ELEIN), 10%; in assay [3] it was 30%. Also, the pest or weed control at 1000 g/ha in assay [4] was determined as 30%; in [5], 0%; in assay [6], 20%.
For `O=S(=O)([O-])CC[n+]1ccc2cccc(C(F)(F)F)c2n1` [Compound A95], the pest or weed control at 1000 g/ha was determined as 10% with Setaria faberi (SETFA); 0% with Lolium perenne (LOLPE); 10% in assay [1]; 10% in assay [2]; 10% in the assay with Eleusine indica (ELEIN); 40% in assay [3]. In addition, the pest or weed control at 1000 g/ha is 50% in [4], 10% in [5] and 50% in assay [6].
Regarding `COC(=O)C[n+]1cc(C)c2cccc(C)c2n1` [Compound A7], the pest or weed control at 1000 g/ha in the assay on Setaria faberi (SETFA) came to 10%; in the assay on Lolium perenne (LOLPE), 20%; in assay [1], 0%; in [2] it was 10%; with Eleusine indica (ELEIN), 20%; in assay [3], 30%. Moreover, the results for the pest or weed control at 1000 g/ha in assay [4], in [5] and in [6] were 20%, 10% and 30%, respectively.
Take `O=S(=O)([O-])CC[n+]1ccc2cccc(-c3ccccc3)c2n1` [Compound A52, 2-(8-phenylcinnolin-2-ium-2-yl)ethanesulfonate]: the pest or weed control at 1000 g/ha in the assay on Setaria faberi (SETFA) is 30%; with Lolium perenne (LOLPE), 20%; in [1], 40%; in [2], 30%; with Eleusine indica (ELEIN), 70%; in [3] it was 100%. Also, the pest or weed control at 1000 g/ha was 100% in [4], 20% in assay [5] and 40% in assay [6].
Consider `Cc1ccc2n[n+](CC(=O)[O-])cc(C)c2c1` [Compound A10], for which the pest or weed control at 1000 g/ha in the assay with Setaria faberi (SETFA) is 40%; in the assay on Lolium perenne (LOLPE) it was 10%; in [1] it was 50%; in [2] it was 40%; in the assay on Eleusine indica (ELEIN) it was 70%; in assay [3] it was 30%. The pest or weed control at 1000 g/ha in assay [4] was found to be 40%; in assay [5] it was 40%; in assay [6], 30%.
Consider `CN(C)S(=O)(=O)[N-]C(=O)C[n+]1ccc2ccccc2n1` [Compound A21, (2-cinnolin-2-ium-2-ylacetyl)-(dimethylsulfamoyl)azanide], for which the pest or weed control at 1000 g/ha with Setaria faberi (SETFA) was 0%; in the assay on Lolium perenne (LOLPE), 0%; in assay [1], 10%; in [2], 20%; with Eleusine indica (ELEIN), 0%; in assay [3], 10%. In addition, the pest or weed control at 1000 g/ha in [4] came out at 70%; in assay [5], 30%; in assay [6], 50%.
With `CNC(=O)c1c[n+](CCS(=O)(=O)[O-])nc2ccccc12` [Compound A13], the pest or weed control at 500 g/ha in the assay with Setaria faberi (SETFA) (application rate 500 g/Ha) is 60%; in the assay on Lolium perenne (LOLPE) (application rate 500 g/Ha) it was 20%; in assay [1] (application rate 500 g/Ha) it was 50%; in [2] (application rate 500 g/Ha), 20%; with Eleusine indica (ELEIN) (application rate 500 g/Ha), 30%; in assay [3] (application rate 500 g/Ha), 40%. In addition, the pest or weed control at 500 g/ha in [4] (application rate 500 g/Ha) is 20%; in assay [5] (application rate 500 g/Ha) it was 50%; in [6] (application rate 500 g/Ha), 50%.
As for `O=C(O)c1ccccc1C[n+]1ccc2ccccc2n1` [Compound A55], the pest or weed control at 1000 g/ha with Setaria faberi (SETFA) amounted to 0%; in the assay with Lolium perenne (LOLPE), 0%; in assay [1], 10%; in assay [2], 30%; in the assay on Eleusine indica (ELEIN), 10%; in assay [3], 10%. Moreover, the pest or weed control at 1000 g/ha in assay [4] is 30%; in [5] it was 20%; in assay [6], 30%.
As to `Cc1cc(C)c2n[n+](CCO)cc(C)c2c1` [Compound A117], the pest or weed control at 1000 g/ha in the assay on Setaria faberi (SETFA) was 30%; in the assay on Lolium perenne (LOLPE), 10%; in [1], 20%; in assay [2] it was 20%; in the assay with Eleusine indica (ELEIN), 60%; in assay [3], 30%. The pest or weed control at 1000 g/ha in assay [4], in assay [5] and in assay [6] was 20% throughout.

For the origin of these results see patent US20220046923A1, “HERBICIDAL CINNOLINIUM COMPOUNDS” (SYNGENTA CROP PROTECTION AG, priority 2018, published 2022).
